Results taken from US5919765A, “Inhibitors of factor XA” (COR Therapeutics, Inc., priority 1995, dated 1999).
Numbered stars: 1 amine (or outer) side, 2 acyl side, 3 side chain; on linkers, the order of the positions; unused ones are H or OH. Square brackets hold non-standard residues; d marks the D form. Peptide text beside a SMILES is read from it. * marks the point of attachment. dCit = NC(=O)NCCC[C@@H](N)C(=O)O; Suc = O=C(CCC(=O)[*:2])[*:1]; Boc = CC(C)(C)OC(=O)*; Aib = CC(C)(N)C(=O)O

How the values were obtained:
thrombin = molecular target: T1, thrombin (Homo sapiens, UniProt P00734); experiment: Thrombin amidolytic assay (chromogenic substrate Chromozym TH); format: biochemical; details: read-out: Inhibitory Activity (IC50) Thrombin
T1 construct: The formation of thrombin is the result of the proteolytic cleavage of its precursor prothrombin

Rabbits [1] = experiment: Rabbit deep vein thrombosis model; format: in vivo
From the text: Haemost. […] Rabbits were anesthetized with I.M. injections of Ketamine, Xylazine, and Acepromazine cocktail.

Rabbits [2] = experiment: Cuticle Bleeding Time model in rabbits; format: in vivo, rabbit; details: 1500 μg/kg+14.85 μg/kg/min
Experimental: In an ancillary study, a Cuticle Bleeding Time model was used to evaluate the effect of test compounds on bleeding time (BT) measurements in rabbits. The standardized protocol involved anesthesia and catheterization of rabbits as previously described in this Example 43. To measure BT, a toe nail was cut 5 mm from the base of the cuticle with a canine nail trimming device. Time until cessation of bleeding was recorded by wicking the blood on to BT blotting paper in 30 second intervals. Test compound was administered as a bolus followed by infusion regimen. Two BT measurements were obtained prior to administration of test compound and three BT measurements accomplished serially after initiation of steady state infusion of test compound. BT measurements were allowed to continue for up to 30 minutes at which time it was stopped with application of silver nitrate. Blood samples were obtained just prior to all BT measurements and processed for measurement of hematological and coagulation parameters.

[3] = rabbit venous thrombosis model, bolus + infusion

`CC(C)(C)OC(=O)N[C@H](CCCNC(=N)N)C(=O)NC(C)(C)C(=O)N[C@H](C=O)CCCNC(=N)N` [Boc--D--Arg--Aib--Arg--H, Boc-D-Arg-Aib-Arg--H] (Boc-[dR]-[Aib]-Arg-aldehyde) was tested, and the IC50 (thrombin) was > 500 µM.

For `CC(C)(C)OC(=O)N[C@H](CCCN=C(N)N)C(=O)NCC(=O)N[C@H](C=O)CCCN=C(N)N` [Boc--D--Arg--Gly--Arg--H, Boc-D-Arg-Gly-Arg--H] (Boc-[dR]-Gly-Arg-aldehyde), the “effects on hematological parameters as compared to saline controls” value (Rabbits [1]; [3]) was “no significant effects” and the “changes in hematological parameters from pre to post administration” value (Rabbits [2]) was “no significant changes”.

`CC(C)(C)OC(=O)N[C@H](CCCNC(=N)N)C(=O)NCC(=O)N[C@H](C=O)CCCNC(=N)N` [Boc--D--Arg--Gly--Arg--H, Boc-D-Arg-Gly-Arg--H] (Boc-[dR]-Gly-Arg-aldehyde) was tested, and the “% Inhibition of Thrombosis” value (Rabbits [1]; 200 + 1.98 μg/kg + μg/kg/min) was 8.4%, the “% Inhibition of Thrombosis” value (Rabbits [1]; 600 + 5.94 μg/kg + μg/kg/min) was -6.6% and the antithrombotic efficacy (Rabbits [1]; [3]) was “demonstrated antithrombotic efficacy at the higher doses evaluated”.

`CC(C)(C)OC(=O)N[C@H](CCCNC(N)=O)C(=O)NCC(=O)N[C@H](C=O)CCCNC(=N)N` [Boc--D--Cit--Gly--Arg--H, Boc-D-Cit-Gly-Arg--H] (Boc-[dCit]-Gly-Arg-aldehyde) was tested, and the IC50 (thrombin) was > 100 µM.

`CC(C)(C)OC(=O)N[C@H](CCCCN)C(=O)NCC(=O)N[C@H](C=O)CCCNC(=N)N` [Boc--D--Lys--Gly--Arg--H, Boc-D-Lys-Gly-Arg--H] (Boc-[dK]-Gly-Arg-aldehyde) was tested, and the IC50 (thrombin) was > 100 µM.

For `CCOC(=O)N[C@H](CCCNC(=N)N)C(=O)NCC(=O)N[C@H](C=O)CCCNC(=N)N` [EtOCO--D--Arg--Gly--Arg--H, EtO2 C-D-Arg-Gly-Arg--H], the IC50 (thrombin) was > 100 µM.

For `N=C(N)NCCC[C@@H](C=O)NC(=O)CNC(=O)[C@@H](CCCNC(=N)N)NC(=O)CCC(=O)O` [HOOC(CH2)2 CO--D--Arg--Gly--Arg--H, Succinoyl-D-Arg-Gly-Arg--H] (Suc-[dR]-Gly-Arg-aldehyde), the IC50 (thrombin) was > 100 µM.

`N=C(N)NCCC[C@@H](C=O)NC(=O)CNC(=O)[C@@H](CCCNC(=N)N)NC(=O)CC(=O)O` [HOOCCH2 CO--D--Arg--Gly--Arg--H, Malonoyl-D-Arg-Gly-Arg--H] was tested, and the IC50 (thrombin) was > 100 µM.
